Each structure is given as a SMILES string.

Data set [1] concerns palmar fibromatosis (Dupuytren's contracture). Description: Clinical treatment of patients with palmar fibromatosis (Dupuytren's contracture) with oral Accutane: initial dosage then maintenance dosage. It is filed as in vivo, human. The protocol: (§1) Example 1 to 3 illustrate clinical effectiveness of the above described treatment method. An initial treatment and a maintenance treatment as described above were prescribed to the patients. It is noted that the patients described in the Examples were in the average weight range, therefore, an average dosage of 40 mg was used.
(§2) The patient was treated with orally administering Accutane® (Hoffmann-La Roche Inc., Nutley, New Jersey) about 40 mg daily for 14 days. Then the dosage was decreased to a maintenance dosage of 40 mg about twice a week for twelve months.
(§3) The patient was treated with orally administering Accutane® about 40 mg daily for 14 days. Then the dosage was decreased to 40 mg about twice a week for eight months.
(§4) The patient was placed on Accutane® 40 mg daily for two weeks.

Data set [2] is described as follows: Side effects, tolerability and laboratory values during the clinical treatment of palmar fibromatosis patients. It is filed as in vivo, human. Here is the method:
as §1, §2, §3, §4

[3] abbreviates: Example 2 patient, eight months of therapy.

Turning to `CC1=C(/C=C/C(C)=C/C=C/C(C)=C\C(=O)O)C(C)(C)CCC1` [Accutane, 13-cis retinoic acid], in data set [1] (Example 1 patient, both hands, after twelve months of therapy), the “dimple overhead of the third methocarpal bone” value was “disappeared”. In addition, the “fibrotic band, right hand” value in data set [1] (Example 1 patient, middle finger, 4 mm before treatment, 40 mg daily 14 days, then 40 mg about twice a week, after twelve months) is listed as 2 mm. The “fibrotic band, left hand” value in data set [1] (Example 1 patient, middle finger, oral 40 mg daily for 14 days, then 40 mg about twice a week, after twelve months) is listed as “completely disappeared”. Further, the “pain and tenderness in the flexor tendon area of the hands” value in data set [1] (Example 1 patient, patient-described, after twelve months of therapy) is on record as “completely abated”. In addition, in data set [1] (Example 1 patient, 7 degree before treatment as printed, after twelve months of therapy), the “range of fixed flexion of the left middle finger” value was “none”. In addition, in data set [1] (Example 1 patient, fixed 15 degree before treatment as printed, after twelve months of therapy), the “fixed flexion of the right middle finger” value stood at 3 degree. Moreover, in data set [1] (Example 2 patient, advanced disease, 40 mg daily 14 days, then 40 mg about twice a week for eight months), the “fibrotic ridge of the left hand” value is “reduced in scope and size”. In addition, the “ring finger's disposition from the flexed position” value in data set [1] (Example 2 patient, left hand, about 90 degree before treatment, eight months of therapy) is on record as “about 70 degree”. Moreover, the “tenderness of the left hand caused by the contracture” value in data set [1] (Example 2 patient, patient-reported, eight months of therapy) is reported as “less tender”. Besides, the “tenderness in the flexor tendon area” value in data set [1] (Example 3 patient, patient-described, nine months of treatment) was “less tenderness”. Besides, in data set [1] (Example 3 patient, right hand, 40 mg daily two weeks, then 40 mg about twice a week for nine months), the “thickness of the fibrotic band” value is “reduced”. Besides, the “restriction of extension of the ring finger” value in data set [1] (Example 3 patient, right hand, nine months of treatment) is on record as “lessened”. For the same compound, the “deflection of the right hand ring finger” value in data set [1] (Example 3 patient, 30 degree before treatment, nine months of treatment) was determined as 20 degree. In addition, the “further progression of the contracture” value in data set [1] (patients with either early stage disease or advanced conditions (general statement)) is listed as “inhibits further progression of the contracture”. Further, the adverse side effects entry in data set [2] (Example 1 patient, 40 mg daily 14 days, then 40 mg about twice a week for twelve months) was “No adverse side effects were noted other than drying of lips”. In addition, the blood chemistries entry in data set [2] (Example 1 patient, low maintenance dosage) is on record as “remained normal”. In data set [2] (setting [3]), the laboratory abnormality result is “No laboratory abnormality was observed” and the musculoskeletal pain entry is given as “some musculoskelatal pain, which diminished after the third month of the treatment”. Also, the tolerability entry in data set [2] (Example 2 patient, lower maintenance dosage) is reported as “well tolerated”. In data set [2] (patients diagnosed with Dupytren's contracture, described treatment (general statement)), the “serious adverse side effects” value is given as “no serious adverse side effects were observed”.

The record behind these values is US6710083B2, “Method of treating palmar and plantar fibromatosis” (priority 2002, dated 2004).
